Measured values as given in PubChem BioAssay (NCI).
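Exposure lasted 48 hours, with cells grown in 96-well plates and compounds tested at five concentrations. TGI denotes the concentration required for complete inhibition of growth.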

Columns and labels:
Experiment in all cases: inhibition of tumour cell growth, NCI panel, 48 h
NCI/ADR-RES ovarian = tested on: NCI/ADR-RES ovarian
786-0 renal = tested on: 786-0 renal
HOP-62 NSCLC = tested on: HOP-62 NSCLC
NCI-H23 lung = tested on: NCI-H23 lung
A549 NSCLC = tested on: A549 NSCLC
HCT-15 colon = tested on: HCT-15 colon
KM12 colon = tested on: KM12 colon
UACC-257 melanoma = tested on: UACC-257 melanoma
K-562 leukemia = tested on: K-562 leukemia
SW-620 colon = tested on: SW-620 colon
HCC-2998 colon = tested on: HCC-2998 colon
LOX IMVI melanoma = tested on: LOX IMVI melanoma
CAKI-1 renal = tested on: CAKI-1 renal
HCT-116 colon = tested on: HCT-116 colon
SF-539 CNS = tested on: SF-539 CNS
OVCAR-8 ovarian = tested on: OVCAR-8 ovarian
TK-10 renal = tested on: TK-10 renal
SK-MEL-5 melanoma = tested on: SK-MEL-5 melanoma
RXF 393 renal = tested on: RXF 393 renal
SK-MEL-2 melanoma = tested on: SK-MEL-2 melanoma
MDA-MB-231 breast = tested on: MDA-MB-231 breast
UO-31 renal = tested on: UO-31 renal
M14 melanoma = tested on: M14 melanoma
DU-145 prostate = tested on: DU-145 prostate
MDA-N = tested on: MDA-N
T-47D breast = tested on: T-47D breast
ACHN renal = tested on: ACHN renal
EKVX NSCLC = tested on: EKVX NSCLC
SF-268 CNS = tested on: SF-268 CNS
U251 CNS = tested on: U251 CNS
HOP-92 NSCLC = tested on: HOP-92 NSCLC
SK-OV-3 ovarian = tested on: SK-OV-3 ovarian
OVCAR-5 ovarian = tested on: OVCAR-5 ovarian
A498 renal = tested on: A498 renal
MALME-3M melanoma = tested on: MALME-3M melanoma
OVCAR-4 ovarian = tested on: OVCAR-4 ovarian
MCF7 breast = tested on: MCF7 breast
NCI-H460 lung = tested on: NCI-H460 lung
COLO 205 colon = tested on: COLO 205 colon
RPMI-8226 leukemia = tested on: RPMI-8226 leukemia
SK-MEL-28 melanoma = tested on: SK-MEL-28 melanoma
HL-60(TB) leukemia = tested on: HL-60(TB) leukemia
NCI-H226 lung = tested on: NCI-H226 lung
HS 578T breast = tested on: HS 578T breast
SNB-19 CNS = tested on: SNB-19 CNS
MDA-MB-435 = tested on: MDA-MB-435
NCI-H522 lung = tested on: NCI-H522 lung
HT29 colon = tested on: HT29 colon
UACC-62 melanoma = tested on: UACC-62 melanoma
SN12C renal = tested on: SN12C renal
PC-3 prostate = tested on: PC-3 prostate
SNB-75 CNS = tested on: SNB-75 CNS
IGROV1 ovarian = tested on: IGROV1 ovarian
MOLT-4 leukemia = tested on: MOLT-4 leukemia
CCRF-CEM leukemia = tested on: CCRF-CEM leukemia
SR leukemia = tested on: SR leukemia
SF-295 CNS = tested on: SF-295 CNS
OVCAR-3 ovarian = tested on: OVCAR-3 ovarian

SMILES: CC1OC(OC2C(O[C@H]3CC[C@@]4(C)C(=CC[C@H]5[C@@H]6C[C@@H]7O[C@]8(CC[C@@H](CO)CO8)[C@@H](C)[C@@H]7[C@@]6(C)CC[C@@H]54)C3)OC(CO)C(O)C2OC2OC(CO)C(O)C(O)C2O)C(O)C(O)C1O (stereo partly drawn)
- TGI (NCI/ADR-RES ovarian): 3.76 µM
- TGI (786-0 renal): 3.3 µM
- TGI (HOP-62 NSCLC): 3.21 µM
- TGI (NCI-H23 lung): 4.07 µM
- TGI (A549 NSCLC): 4.48 µM
- TGI (HCT-15 colon): 3.94 µM
- TGI (KM12 colon): 3.57 µM
- TGI (UACC-257 melanoma): 3.24 µM
- TGI (K-562 leukemia): 3.17 µM
- TGI (SW-620 colon): 3.54 µM
- TGI (HCC-2998 colon): 2.97 µM
- TGI (LOX IMVI melanoma): 3.39 µM
- TGI (CAKI-1 renal): 3.55 µM
- TGI (HCT-116 colon): 3.02 µM
- TGI (SF-539 CNS): 3.07 µM
- TGI (OVCAR-8 ovarian): 3.46 µM
- TGI (TK-10 renal): 3.08 µM
- TGI (SK-MEL-5 melanoma): 3.11 µM
- TGI (RXF 393 renal): 3.01 µM
- TGI (SK-MEL-2 melanoma): 3.7 µM
- TGI (MDA-MB-231 breast): 3.25 µM
- TGI (UO-31 renal): 5.46 µM
- TGI (M14 melanoma): 4.14 µM
- TGI (DU-145 prostate): 3.34 µM
- TGI (MDA-N): 3.06 µM
- TGI (T-47D breast): 4.02 µM
- TGI (ACHN renal): 3.25 µM
- TGI (EKVX NSCLC): 3.96 µM
- TGI (SF-268 CNS): 3.54 µM
- TGI (U251 CNS): 3.22 µM
- TGI (HOP-92 NSCLC): 3.32 µM
- TGI (SK-OV-3 ovarian): 4.19 µM
- TGI (OVCAR-5 ovarian): 4.08 µM
- TGI (A498 renal): 3.82 µM
- TGI (MALME-3M melanoma): 3.34 µM
- TGI (OVCAR-4 ovarian): 3.69 µM
- TGI (MCF7 breast): 3.15 µM
- TGI (NCI-H460 lung): 3.18 µM
- TGI (COLO 205 colon): 3.42 µM
- TGI (RPMI-8226 leukemia): 3.92 µM
- TGI (SK-MEL-28 melanoma): 3.46 µM
- TGI (HL-60(TB) leukemia): 2.8 µM
- TGI (NCI-H226 lung): 3.79 µM
- TGI (HS 578T breast): 8.06 µM
- TGI (SNB-19 CNS): 3.96 µM
- TGI (MDA-MB-435): 3.48 µM
- TGI (NCI-H522 lung): 3.19 µM
- TGI (HT29 colon): 4.91 µM
- TGI (UACC-62 melanoma): 3.23 µM
- TGI (SN12C renal): 3.21 µM
- TGI (PC-3 prostate): 3.33 µM
- TGI (SNB-75 CNS): 3.06 µM
- TGI (IGROV1 ovarian): 4.05 µM

SMILES: CC(C)[Si](OC1=C(C(=O)N(C)c2cccc(Cl)c2)CCCC1)(C(C)C)C(C)C
- TGI (NCI/ADR-RES ovarian): 26.3 µM
- TGI (786-0 renal): 34.2 µM
- TGI (HOP-62 NSCLC): 32.4 µM
- TGI (NCI-H23 lung): 25.3 µM
- TGI (A549 NSCLC): 19.9 µM
- TGI (HCT-15 colon): 28.4 µM
- TGI (MOLT-4 leukemia): > 100 µM
- TGI (KM12 colon): 26.5 µM
- TGI (CCRF-CEM leukemia): 49 µM
- TGI (UACC-257 melanoma): 27.8 µM
- TGI (SR leukemia): 42.5 µM
- TGI (K-562 leukemia): 71.3 µM
- TGI (SW-620 colon): 29.2 µM
- TGI (HCC-2998 colon): 34 µM
- TGI (LOX IMVI melanoma): 32.6 µM
- TGI (CAKI-1 renal): 25.9 µM
- TGI (SF-539 CNS): 40.4 µM
- TGI (OVCAR-8 ovarian): 31 µM
- TGI (TK-10 renal): 30.4 µM
- TGI (SK-MEL-5 melanoma): 34.2 µM
- TGI (RXF 393 renal): 18.9 µM
- TGI (SK-MEL-2 melanoma): 33.2 µM
- TGI (MDA-MB-231 breast): 34.6 µM
- TGI (UO-31 renal): 27.9 µM
- TGI (M14 melanoma): 29.3 µM
- TGI (DU-145 prostate): 25.5 µM
- TGI (MDA-N): 34.4 µM
- TGI (SF-295 CNS): 23.3 µM
- TGI (T-47D breast): 18.1 µM
- TGI (ACHN renal): 31.2 µM
- TGI (EKVX NSCLC): 30.1 µM
- TGI (SF-268 CNS): 28.6 µM
- TGI (U251 CNS): 32.9 µM
- TGI (HOP-92 NSCLC): 25.4 µM
- TGI (SK-OV-3 ovarian): 30.6 µM
- TGI (OVCAR-5 ovarian): 22.5 µM
- TGI (A498 renal): 31.5 µM
- TGI (MALME-3M melanoma): 24.9 µM
- TGI (OVCAR-4 ovarian): 26 µM
- TGI (MCF7 breast): 29.2 µM
- TGI (NCI-H460 lung): 32.8 µM
- TGI (OVCAR-3 ovarian): 27.6 µM
- TGI (COLO 205 colon): 35 µM
- TGI (RPMI-8226 leukemia): 42.4 µM
- TGI (SK-MEL-28 melanoma): 28.6 µM
- TGI (HL-60(TB) leukemia): 26.3 µM
- TGI (NCI-H226 lung): 37.7 µM
- TGI (HS 578T breast): 30.3 µM
- TGI (SNB-19 CNS): 31 µM
- TGI (MDA-MB-435): 29 µM
- TGI (HT29 colon): 31.1 µM
- TGI (UACC-62 melanoma): 30.8 µM
- TGI (PC-3 prostate): 24 µM
- TGI (SNB-75 CNS): 22.8 µM
- TGI (IGROV1 ovarian): 32.3 µM
